# How the values were obtained:
# [1] = tested on: arteriovenous bypass thrombosis in rats; experiment: Arteriovenous bypass thrombosis in rats; type: in vivo; settings: SD rats, 6.75 mg/kg by gavage for 15 days
# Procedure: After 5 days of adaptive feeding, the animals were randomly divided into blank control group, positive control group (Plavix group, 6.75 mg/kg), and four test substance groups (100, 200, 400 and 800 mg/kg), with 20 rats in each group. The animals were administered by gavage for 15 consecutive days, once a day.
# After the last administration, 3% Pentobarbital Sodium was injected intraperitoneally for anesthesia (40 mg/kg). The right common carotid artery and left external jugular vein were separated. A 6 cm long medical surgical suture (No. 0) was placed in the middle of a polyethylene tube, which was filled with normal saline and inserted into the right common carotid artery and the left external jugular vein respectively to form an arteriovenous vascular loop. After 15 minutes, the blood flow was cut off, and the suture was taken out and weighed.
# In this experiment, the classical rat arteriovenous bypass was used to form the bypass arteriovenous blood flow. When the platelets in the arterial blood flow contact the rough surface of the suture, they adhere to the suture, and the platelet aggregation forms platelet thrombosis around the surface of the suture. When platelet adhesion and aggregation function is inhibited, the weight of thrombosis become smaller. Therefore, the adhesion and aggregation function of platelets can be measured by thrombus weight.
# [2] = tested on: thrombin induced platelet aggregation in rats; experiment: Thrombin induced rat platelet aggregation after 15 days gavage; type: in vivo; settings: SD rats, 6.75 mg/kg by gavage for 15 days
# Description: Platelet aggregation rate is a detection index of platelet function. The higher the platelet aggregation rate, the greater the possibility of thrombosis. In arteriosclerosis, coronary heart disease, cerebral infarction, hypertension, diabetes and other thrombotic diseases, platelet aggregation rate is often increased. […] Therefore, the determination of platelet aggregation rate can be used to observe the curative effect and screen drugs. In this study, thrombin induced rat platelet aggregation model was used to evaluate the inhibitory effect of the traditional Chinese medicine composition on platelet aggregation. […]
# After the last administration, 3% Pentobarbital Sodium was injected intraperitoneally for anesthesia (40 mg/kg). […] After 10 minutes of centrifugation at 800 rpm, the upper platelet rich plasma (PRP) was aspirated and the number of platelets was counted. […]
# A small magnetic rod and 300 μl PRP were added into a square cup, which was preheated for 5 minutes in a constant temperature hole, and 300 μl PPP was added into another square cup. […] The maximum platelet aggregation rate was measured, wherein 3-4 parallel tests were performed for each blood sample and the average value was taken.
compound,measurement,setting,value
"COC(=O)[C@H](c1ccccc1Cl)N1CCc2sccc2C1 [Plavix, Clopidogrel Hydrogen Sulphate]",Net weight of suture,[1],20.2 ± 4.8 mg
same,Maximum platelet aggregation rate,[2],35.8±29.7%
